Assay results reported in paper PMC9234961 (Journal of Medicinal Chemistry, 2022).
≈ marks a conversion by molar mass, not a printed value. Where “and” joins values, the source holds several entries; their conditions need not be identical. Equal values may be shown once. Read-outs that look alike come from different tables or passages of the source.

What was measured:
[1] = NMR solubility assay; type: physicochemical; settings: kinetic solubility by NMR in HEPES buffer at pH 8, 4% DMSO; read-out: Aq. Sol.
Experimental: 4. Supplementary experimental: physicochemical assays
0.5 mM TCEP, 10% D2O) was pipetted into the same well and mixed by up-down pipetting 3 times to create […]
It was then separated by centrifugation (1000 rpm
The plate was then sealed and incubated at room temperature for 20 hours, […]
165 µL of the supernatant was transferred to a 3 mm NMR tube (Bruker, Part No. Z112272) using liquid handler SamplePro Tube SJ S (Bruker). The concentration of the solubilized compound in solubility sample is measured by quantitative 1H-NMR using a single external standard (200 µM caffeine (Sigma, C1778) in PBS (pH 7.4) with 1% DMSO-d6).
The detail of the NMR method is as following: NMR data was collected on a Bruker Avance Neo 600 spectrometer equipped with a 5 mm TCI-CryoProbe. The 1H spectrum was referenced to the internal deuterated solvent. The operating frequency for 1H was 600 MHz. All NMR data were acquired at the […]
1H-NMR spectrum was acquired using a Bruker standard 1D lc1pngppsf2 pulse sequence with 32 scans.
The sweep width was 6.2 ppm with O1P set to 8.8 ppm, and the FID contained 16k time-domain data points. Relaxation delay was set to 20 sec. Water signal was suppressed. […]

[2] = target: T1, human BCL6 BTB domain (Homo sapiens, UniProt P41182); assay: biochemical
[3] = target: endogenous BCL6 in OCI-Ly1 cells (Homo sapiens, UniProt P41182); assay: cell-based; settings: for degradation of BCL6 (in words): OCI-Ly1 MSD assay; for MSD degrader assay [OCI-Ly1] Dmax: mean maximal degradation of BCL6; for MSD degrader assay [OCI-LY1] pDC50 mean: mean of replicates
[4] = logD7.4 assay (Chrom log D method); type: physicochemical; settings: reversed-phase HPLC on Phenomenex Luna C8 column, pH 7.4, read-out: Measured logD7.4
Experimental: Calibration, validation and in-house compounds were prepared at 1mM in 10% DMSO / 90% Trizma solution (100mM Trizma in 75/25 methanol/water). 3 µL standard injections (with needle wash) of all calibration, validation and in-house samples were made onto a Phenomenex Luna C8 column (3µm, 100 x 4.6 mm, 100A, Phenomenex, Torrence, USA). Chromatographic separation at 30°C was carried out using […]
2 mL/min. The gradient was held at 0:100 water:organic for 0.8 minutes, then returned to the starting conditions of 95:5 water:organic for 0.2 minutes. The column was re-equilibrated for 5 minutes at the […]

[5] = Microsomal clearance assay (MLM); type: in vitro ADME; settings: female, CD1, pH 7.4; mouse liver microsomes, 1 μM compound
Experimental: 6. Supplementary experimental: in vitro DMPK assays
6.1 Microsomal clearance assay
Microsomal clearance was determined in female CD1 mice, female Sprague–Dawley rats, and mixed gender human liver microsomes obtained from BioIVT (Peterborough, U.K.) following incubation of 1 μM compound at 37 °C in 0.5 mg/mL microsomal protein, 3 mmol/L MgCl2, 1 mmol/L NADPH, 2.5 mmol/L and 10 mmol/L phosphate buffer (pH 7.4) (all purchased from Sigma-Aldrich, Gillingham, U.K). Reactions were started by addition of the cofactors following 10 min preincubation of microsomes with test compound and were terminated at −1, 0, 5, 10, 15, and 30 min with three volumes of ice-cold methanol containing internal standard. Samples were centrifuged at 2800g for 30 min at 4 °C and the supernatants analyzed.
Control incubations were prepared as above with omission of cofactors. Compound measurements were […]
separation with a 3 min gradient of 0.1% formic acid in methanol on a Kinetex C18, 50 × 2.1 mm 2.6 μm UPLC column (Phenomenex, Macclesfield, UK). […]

[6] = target: T1, human BCL6 BTB domain; settings: for BCL6 TR-FRET pIC50 mean: mean of replicates
[7] = BCL6 TR-FRET IC50 individual replicates, single replicate values
[8] = OCI-Ly1, read-out: MSD degrader assay [OCI-LY1] Dmax individual replicates, single replicate values
[9] = OCI-Ly1, read-out: MSD degrader assay [OCI-Ly1] Dmax, mean maximal degradation of BCL6, OCI-Ly1 cells, 2 h
[10] = read-out: MSD degrader assay [OCI-LY1] DC50 individual replicates, single replicate values
[11] = read-out: MSD degrader assay [OCI-Ly1] DC50, geometric mean, OCI-Ly1 cells, 2 h incubation
[12] = read-out: BCL6 TR-FRET IC50, geometric mean, BCOR-AF633 peptide, 2 h incubation
[13] = read-out: BCL6 TR-FRET IC50 individual replicates, single replicate values

Row | SMILES | solubility kinetic at 20 h [1] [µM] | IC50 [2, 7] | Dmax [3, 8] [%] | Dmax [3, 9] [%] | degradation of BCL6 (in words) [3] | MSD degrader assay [OCI-Ly1] Dmax ([3]; OCI-Ly1 cells, 2 h) [%] | MSD degrader assay [OCI-LY1] pDC50 mean [3] | DC50 [3, 10] | DC50 [3, 11] [nM] | MSD degrader assay [OCI-LY1] Dmax individual replicates ([3]; single replicate values) | chromatographic logD [4] | microsomal CLint at 0.5 h, 1 µM [5] [µL/min/mg] | BCL6 TR-FRET pIC50 mean [6] | IC50 [6, 12] [nM] | IC50 [6, 13] | IC50 ([2]; BCL6 TR-FRET IC50, geometric mean, BCOR-AF633 peptide, 2 h incubation) [nM] | IC50 ([2]; BCL6 TR-FRET pIC50 mean, mean of replicates) [nM]
1 | Cn1c(=O)c2c(c3cc(Nc4nc(N5CCC(F)(F)[C@@H](O)C5)ncc4Cl)ccc31)N[C@@H](C1CC1)C(F)(F)CO2 (single isomer, unassigned) [8a] | 11 (≈ 6.26 µg/mL) | 3.2 nM and 3.3 nM and 4 nM | 60.5 | 59.6 | potently degrading isomer | 60 | 8.1499 | 4.3 nM and 11.6 nM and 7.1 nM | 7.1 | 50.7% and 67.5% | 3 | 53 | 8.4571 | 3.5 | – | – | –
2 | Cn1c(=O)c2c(c3cc(Nc4nc(N5CCC(F)(F)[C@H](O)C5)ncc4Cl)ccc31)N[C@@H](C1CC1)C(F)(F)CO2 (single isomer, unassigned) [8b] | 13 (≈ 7.4 µg/mL) | – | < 30 | < 30 | nondegrading isomer | > 30 | – | > 2000 nM | > 2000 | – | 3 | 22 | 8.3342 | 4.6 | 4.8 nM and 4.7 nM and 4.4 nM | – | –
3 | Cn1c(=O)c2c(c3cc(Nc4nc(N5CCC(F)(F)[C@H](CO)C5)ncc4Cl)ccc31)N[C@@H](C1CC1)C(F)(F)CO2 [9b, (S)-10-((5-Chloro-2-((S)-4,4-difluoro-3-(hydroxymethyl)piperidin-1-yl)pyrimidin-4-yl)amino)-2-cyclopropyl-3,3-difluoro-7-methyl-1,2,3,4-tetrahydro-[1,4]oxazepino[2,3-c]quinolin-6(7H)-one] | 6.8 (≈ 3.96 µg/mL) | 3.4 nM and 3.8 nM and 5 nM | – | 44.7 | partial degradation | ~45 | – | > 2000 nM | > 2000 | 56.1% and 58.2% and 19.9% | 3.2 | 129 | 8.3907 | 4.1 | 4.2 nM | – | –
4 | C[C@@H]1C[C@@H](O)CN(c2ncc(Cl)c(Nc3ccc4c(c3)c3c(c(=O)n4C)OCC(F)(F)[C@H](C4CC4)N3)n2)C1 [13a, (S)-10-((5-Chloro-2-((3R,5R)-3-hydroxy-5-methylpiperidin-1-yl)pyrimidin-4-yl)amino)-2-cyclopropyl-3,3-difluoro-7-methyl-1,2,3,4-tetrahydro-[1,4]oxazepino[2,3-c]quinolin-6(7H)-one] | – | 11.4 nM and 8.6 nM | < 30 | < 30 | nondegraders of BCL6 | > 30 | – | > 2000 nM | > 2000 | – | 3 | 78 | 8.0053 | 9.9 | 9.9 nM | – | –
5 | C[C@H]1C[C@H](O)CN(c2ncc(Cl)c(Nc3ccc4c(c3)c3c(c(=O)n4C)OCC(F)(F)[C@H](C4CC4)N3)n2)C1 [13b, (S)-10-((5-Chloro-2-((3S,5S)-3-hydroxy-5-methylpiperidin-1-yl)pyrimidin-4-yl)amino)-2-cyclopropyl-3,3-difluoro-7-methyl-1,2,3,4-tetrahydro-[1,4]oxazepino[2,3-c]quinolin-6(7H)-one] | – | 4.9 nM and 6.4 nM and 6.8 nM | < 30 | < 30 | nondegraders of BCL6 | > 30 | – | > 2000 nM | > 2000 | – | 3.1 | 446 | 8.2236 | 6 | – | – | –
6 | Cn1c(=O)c2c(c3cc(Nc4nc(N5CCC[C@H](O)C5)ncc4Cl)ccc31)N[C@@H](C1CC1)C(F)(F)CO2 [14b, (S)-10-((5-chloro-2-((S)-3-hydroxypiperidin-1-yl)pyrimidin-4-yl)amino)-2-cyclopropyl-3,3-difluoro-7-methyl-1,2,3,4-tetrahydro-[1,4]oxazepino[2,3-c]quinolin-6(7H)-one] | 23 (≈ 12.3 µg/mL) | 3.1 nM (2×) and 3.2 nM and 2.9 nM | < 30 | < 30 | none was seen | > 30 | – | > 2000 nM | > 2000 | – | – | 139 | – | 2.5 | 2.6 nM | 3 | 2.98
7 | Cn1c(=O)n(CCC(C)(C)O)c2cc(Nc3nc(N4CCC(F)(F)C(O)C4)ncc3Cl)ccc21 (stereo not drawn) [compound 3, 5-((5-Chloro-2-(4,4-difluoro-3-hydroxypiperidin-1-yl)pyrimidin-4-yl)amino)-3-(3-hydroxy-3-methylbutyl)-1-methyl-1,3-dihydro-2H-benzo[d]imidazol-2-one] | 11 (≈ 5.47 µg/mL) | – | 81 | 77.5 | – | 78 | 6.5593 | 246 nM and 310 nM | 276 | 74.1% | 2.3 | 35 | 6.6241 | 238 | 227 nM and 247 nM and 239 nM | – | –
8 | Cn1c(=O)n(CCC(C)(C)O)c2cc(Nc3nc(N4CCC(F)(F)C(CO)C4)ncc3Cl)ccc21 (stereo not drawn) [compound 4, 5-((5-Chloro-2-(4,4-difluoro-3-(hydroxymethyl)piperidin-1-yl)pyrimidin-4-yl)amino)-3-(3-hydroxy-3-methylbutyl)-1-methyl-1,3-dihydro-2H-benzo[d]imidazol-2-one] | 294 (≈ 150 µg/mL) | – | – | – | – | – | – | – | – | – | 2.5 | – | – | – | – | – | –
